Calls of active or inactive are those of the source.
How the values were obtained:
[1] = target: T1, NUAK family SNF1-like kinase 2 (Homo sapiens, UniProt Q9H093)
T1 sequence (Q9H093 whole entry): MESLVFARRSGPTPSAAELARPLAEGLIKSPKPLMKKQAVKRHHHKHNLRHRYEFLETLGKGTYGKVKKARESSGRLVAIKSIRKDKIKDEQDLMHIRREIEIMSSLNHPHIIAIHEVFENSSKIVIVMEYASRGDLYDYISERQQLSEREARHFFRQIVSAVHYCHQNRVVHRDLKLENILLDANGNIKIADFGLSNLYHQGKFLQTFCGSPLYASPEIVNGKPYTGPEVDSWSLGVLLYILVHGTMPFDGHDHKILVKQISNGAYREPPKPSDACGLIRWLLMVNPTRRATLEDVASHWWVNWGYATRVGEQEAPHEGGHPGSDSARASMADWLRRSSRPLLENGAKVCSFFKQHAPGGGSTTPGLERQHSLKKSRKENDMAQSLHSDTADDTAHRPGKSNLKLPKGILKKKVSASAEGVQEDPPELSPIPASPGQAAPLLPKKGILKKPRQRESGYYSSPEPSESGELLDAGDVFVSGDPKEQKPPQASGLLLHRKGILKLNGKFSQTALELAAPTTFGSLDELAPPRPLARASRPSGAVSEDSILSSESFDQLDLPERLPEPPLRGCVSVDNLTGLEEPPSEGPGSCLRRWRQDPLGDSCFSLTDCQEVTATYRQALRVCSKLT

[2] = target: Tyrosine-protein kinase CSK (Homo sapiens, UniProt P41240)
Sequence of Tyrosine-protein kinase CSK (P41240 whole entry): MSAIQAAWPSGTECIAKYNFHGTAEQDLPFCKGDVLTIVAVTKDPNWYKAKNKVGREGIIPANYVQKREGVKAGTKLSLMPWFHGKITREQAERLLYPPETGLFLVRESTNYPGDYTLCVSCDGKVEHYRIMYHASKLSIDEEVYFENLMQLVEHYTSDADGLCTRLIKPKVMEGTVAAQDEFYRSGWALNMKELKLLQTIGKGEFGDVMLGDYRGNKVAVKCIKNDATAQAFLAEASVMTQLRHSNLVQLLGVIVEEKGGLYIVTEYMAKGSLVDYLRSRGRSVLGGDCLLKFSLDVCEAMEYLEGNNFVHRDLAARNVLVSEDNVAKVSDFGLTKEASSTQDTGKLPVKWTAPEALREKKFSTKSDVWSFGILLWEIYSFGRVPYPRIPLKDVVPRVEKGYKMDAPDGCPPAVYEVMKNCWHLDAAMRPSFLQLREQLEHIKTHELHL

Ephrin type-A receptor 2 = Ephrin type-A receptor 2 (Homo sapiens, UniProt P29317)
Sequence of Ephrin type-A receptor 2 (P29317 whole entry): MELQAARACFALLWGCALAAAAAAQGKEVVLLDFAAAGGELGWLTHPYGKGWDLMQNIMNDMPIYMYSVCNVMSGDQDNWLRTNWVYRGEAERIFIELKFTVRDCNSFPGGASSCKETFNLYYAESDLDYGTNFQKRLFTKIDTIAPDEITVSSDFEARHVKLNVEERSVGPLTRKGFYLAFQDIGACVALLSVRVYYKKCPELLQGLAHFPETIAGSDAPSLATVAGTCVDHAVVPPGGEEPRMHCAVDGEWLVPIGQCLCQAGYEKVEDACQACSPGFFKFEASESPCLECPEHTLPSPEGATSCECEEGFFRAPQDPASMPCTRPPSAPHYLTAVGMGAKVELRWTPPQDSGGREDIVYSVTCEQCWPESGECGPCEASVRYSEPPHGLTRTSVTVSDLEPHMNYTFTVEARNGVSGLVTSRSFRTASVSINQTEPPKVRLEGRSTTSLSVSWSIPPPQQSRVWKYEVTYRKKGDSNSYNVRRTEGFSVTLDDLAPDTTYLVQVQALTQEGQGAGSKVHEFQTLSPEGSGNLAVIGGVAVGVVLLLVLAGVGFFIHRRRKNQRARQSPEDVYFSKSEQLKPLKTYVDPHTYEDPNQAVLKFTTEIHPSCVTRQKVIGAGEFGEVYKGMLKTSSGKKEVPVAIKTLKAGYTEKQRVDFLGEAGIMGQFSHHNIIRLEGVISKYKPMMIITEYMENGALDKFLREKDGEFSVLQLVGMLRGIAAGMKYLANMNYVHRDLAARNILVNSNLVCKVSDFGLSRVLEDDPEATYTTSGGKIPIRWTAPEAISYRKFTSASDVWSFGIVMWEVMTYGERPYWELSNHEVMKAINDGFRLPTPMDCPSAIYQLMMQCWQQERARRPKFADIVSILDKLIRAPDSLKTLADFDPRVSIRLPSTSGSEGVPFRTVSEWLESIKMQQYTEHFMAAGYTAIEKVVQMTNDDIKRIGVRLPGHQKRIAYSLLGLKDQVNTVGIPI

Rab-like protein 3 = target: T2, Rab-like protein 3 (Homo sapiens, UniProt Q5HYI8)
T2 sequence (Q5HYI8 whole entry): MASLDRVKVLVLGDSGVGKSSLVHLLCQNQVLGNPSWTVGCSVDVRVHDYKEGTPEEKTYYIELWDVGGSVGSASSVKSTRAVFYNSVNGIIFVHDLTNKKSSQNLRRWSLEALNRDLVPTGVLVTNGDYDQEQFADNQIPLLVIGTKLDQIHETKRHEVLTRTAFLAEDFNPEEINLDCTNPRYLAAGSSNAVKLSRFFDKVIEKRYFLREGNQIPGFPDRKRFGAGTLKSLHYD

[3] = target: Myosin light chain kinase, smooth muscle (Homo sapiens, UniProt Q15746)
Sequence of Myosin light chain kinase, smooth muscle (Q15746 whole entry): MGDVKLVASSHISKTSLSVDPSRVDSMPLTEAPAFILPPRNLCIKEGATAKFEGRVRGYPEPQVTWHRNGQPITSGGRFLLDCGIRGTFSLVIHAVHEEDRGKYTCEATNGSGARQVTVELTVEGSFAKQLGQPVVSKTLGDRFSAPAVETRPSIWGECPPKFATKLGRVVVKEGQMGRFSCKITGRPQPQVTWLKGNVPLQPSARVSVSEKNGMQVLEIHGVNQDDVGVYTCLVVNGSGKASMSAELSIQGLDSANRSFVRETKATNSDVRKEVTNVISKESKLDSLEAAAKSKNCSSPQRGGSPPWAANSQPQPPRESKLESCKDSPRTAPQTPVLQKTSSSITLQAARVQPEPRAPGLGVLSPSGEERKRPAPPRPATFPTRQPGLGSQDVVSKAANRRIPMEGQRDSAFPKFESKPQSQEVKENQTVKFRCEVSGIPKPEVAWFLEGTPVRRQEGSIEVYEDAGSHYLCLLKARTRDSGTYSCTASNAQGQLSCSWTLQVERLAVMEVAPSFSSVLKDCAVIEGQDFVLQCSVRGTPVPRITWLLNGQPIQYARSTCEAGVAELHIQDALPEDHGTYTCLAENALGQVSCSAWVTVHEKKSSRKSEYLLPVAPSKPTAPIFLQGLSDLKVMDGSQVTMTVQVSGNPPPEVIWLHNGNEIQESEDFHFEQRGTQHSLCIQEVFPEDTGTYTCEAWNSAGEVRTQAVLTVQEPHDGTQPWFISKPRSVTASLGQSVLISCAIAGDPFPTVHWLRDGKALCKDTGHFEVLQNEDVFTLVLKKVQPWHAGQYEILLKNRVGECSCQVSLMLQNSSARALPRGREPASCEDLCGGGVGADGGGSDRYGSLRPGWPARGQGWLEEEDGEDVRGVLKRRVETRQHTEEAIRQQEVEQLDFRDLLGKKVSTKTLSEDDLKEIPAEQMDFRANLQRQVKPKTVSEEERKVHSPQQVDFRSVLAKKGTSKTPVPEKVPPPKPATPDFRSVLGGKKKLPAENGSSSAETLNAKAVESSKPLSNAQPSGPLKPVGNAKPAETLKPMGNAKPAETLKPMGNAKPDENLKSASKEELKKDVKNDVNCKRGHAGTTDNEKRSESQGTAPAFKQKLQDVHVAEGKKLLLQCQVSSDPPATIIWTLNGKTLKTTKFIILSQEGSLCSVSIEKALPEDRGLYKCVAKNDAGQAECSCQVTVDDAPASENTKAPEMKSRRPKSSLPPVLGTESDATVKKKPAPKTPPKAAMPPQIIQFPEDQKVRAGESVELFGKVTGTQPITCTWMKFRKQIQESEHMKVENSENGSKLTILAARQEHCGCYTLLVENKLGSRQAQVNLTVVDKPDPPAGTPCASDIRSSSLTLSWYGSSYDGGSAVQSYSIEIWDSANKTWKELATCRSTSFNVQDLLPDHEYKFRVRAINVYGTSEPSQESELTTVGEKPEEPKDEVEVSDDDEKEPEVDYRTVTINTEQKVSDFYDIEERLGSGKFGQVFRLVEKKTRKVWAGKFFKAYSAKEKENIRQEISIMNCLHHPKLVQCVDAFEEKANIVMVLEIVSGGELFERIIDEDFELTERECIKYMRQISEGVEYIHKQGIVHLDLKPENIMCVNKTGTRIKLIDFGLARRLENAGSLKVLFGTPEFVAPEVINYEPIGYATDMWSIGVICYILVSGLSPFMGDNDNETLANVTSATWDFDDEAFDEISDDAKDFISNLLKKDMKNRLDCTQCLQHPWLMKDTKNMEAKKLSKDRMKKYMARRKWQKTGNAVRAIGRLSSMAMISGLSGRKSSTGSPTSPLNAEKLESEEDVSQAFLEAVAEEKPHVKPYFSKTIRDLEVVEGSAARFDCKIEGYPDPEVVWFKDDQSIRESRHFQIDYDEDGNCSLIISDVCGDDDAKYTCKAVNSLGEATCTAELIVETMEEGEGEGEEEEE

Septin-9 = target: T3, Septin-9 (Homo sapiens, UniProt Q9UHD8)
T3 sequence (Q9UHD8 whole entry): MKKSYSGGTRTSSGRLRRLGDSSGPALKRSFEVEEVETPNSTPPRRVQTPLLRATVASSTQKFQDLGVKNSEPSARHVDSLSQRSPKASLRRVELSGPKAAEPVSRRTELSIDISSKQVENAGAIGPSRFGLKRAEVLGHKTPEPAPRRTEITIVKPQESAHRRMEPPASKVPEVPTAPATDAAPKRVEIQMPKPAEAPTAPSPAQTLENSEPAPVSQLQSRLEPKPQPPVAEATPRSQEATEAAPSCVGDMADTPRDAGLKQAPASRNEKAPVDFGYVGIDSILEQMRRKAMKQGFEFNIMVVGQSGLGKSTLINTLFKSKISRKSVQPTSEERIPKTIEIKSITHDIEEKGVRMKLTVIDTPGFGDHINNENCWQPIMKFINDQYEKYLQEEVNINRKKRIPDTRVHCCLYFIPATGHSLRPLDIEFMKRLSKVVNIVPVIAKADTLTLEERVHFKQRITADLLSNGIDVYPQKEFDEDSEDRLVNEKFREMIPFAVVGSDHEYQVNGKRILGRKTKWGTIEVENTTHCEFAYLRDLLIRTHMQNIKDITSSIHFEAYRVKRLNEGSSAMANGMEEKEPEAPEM

[4] = target: TRAF2 and NCK-interacting protein kinase (Homo sapiens, UniProt Q9UKE5)
[5] = target: RAC-gamma serine/threonine-protein kinase (Homo sapiens, UniProt Q9Y243)
Sequence of RAC-gamma serine/threonine-protein kinase (Q9Y243 whole entry, canonical isoform): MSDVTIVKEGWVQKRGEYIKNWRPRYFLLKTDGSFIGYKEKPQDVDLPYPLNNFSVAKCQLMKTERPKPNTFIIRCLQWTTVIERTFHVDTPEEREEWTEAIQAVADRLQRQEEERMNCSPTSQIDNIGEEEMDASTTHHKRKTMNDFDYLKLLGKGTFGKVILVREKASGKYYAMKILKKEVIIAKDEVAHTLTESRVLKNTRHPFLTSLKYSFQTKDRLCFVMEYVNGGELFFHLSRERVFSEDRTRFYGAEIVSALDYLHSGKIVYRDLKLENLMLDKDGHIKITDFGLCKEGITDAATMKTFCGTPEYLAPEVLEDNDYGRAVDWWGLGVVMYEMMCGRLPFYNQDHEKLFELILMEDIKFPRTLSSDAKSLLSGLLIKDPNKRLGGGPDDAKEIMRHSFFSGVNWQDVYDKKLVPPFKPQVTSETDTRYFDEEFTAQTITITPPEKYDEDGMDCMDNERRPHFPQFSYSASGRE

[6] = target: Casein kinase I isoform delta (Homo sapiens, UniProt P48730)
Sequence of Casein kinase I isoform delta (P48730 whole entry, canonical isoform): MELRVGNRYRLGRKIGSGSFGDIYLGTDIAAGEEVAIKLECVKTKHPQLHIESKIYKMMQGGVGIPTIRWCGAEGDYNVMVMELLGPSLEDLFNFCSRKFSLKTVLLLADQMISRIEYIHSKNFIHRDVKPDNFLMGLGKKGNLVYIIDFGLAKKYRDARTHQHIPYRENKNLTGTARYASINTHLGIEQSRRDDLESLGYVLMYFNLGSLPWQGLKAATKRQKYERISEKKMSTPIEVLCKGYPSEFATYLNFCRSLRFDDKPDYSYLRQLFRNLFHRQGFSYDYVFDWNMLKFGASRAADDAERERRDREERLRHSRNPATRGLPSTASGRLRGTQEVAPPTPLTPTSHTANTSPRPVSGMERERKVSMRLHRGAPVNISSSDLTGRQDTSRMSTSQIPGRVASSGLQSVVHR

[7] = target: T4, Bifunctional phosphoribosylaminoimidazole carboxylase/phosphoribosylaminoimidazole succinocarboxamide synthetase (Homo sapiens, UniProt P22234)
T4 sequence (P22234 whole entry): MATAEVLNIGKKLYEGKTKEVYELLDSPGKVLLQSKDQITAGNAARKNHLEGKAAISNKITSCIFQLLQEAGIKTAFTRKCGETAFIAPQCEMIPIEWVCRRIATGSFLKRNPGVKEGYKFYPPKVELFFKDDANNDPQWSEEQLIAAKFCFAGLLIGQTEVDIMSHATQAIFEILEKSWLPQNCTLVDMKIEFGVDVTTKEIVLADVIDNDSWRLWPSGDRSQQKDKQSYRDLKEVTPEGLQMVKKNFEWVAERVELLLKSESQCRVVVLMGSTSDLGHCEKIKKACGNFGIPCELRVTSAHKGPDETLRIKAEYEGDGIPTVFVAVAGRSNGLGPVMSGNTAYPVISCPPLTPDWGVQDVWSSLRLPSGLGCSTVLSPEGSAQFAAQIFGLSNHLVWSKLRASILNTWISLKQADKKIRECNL

Activin receptor type-1B = target: T5, Activin receptor type-1B (Homo sapiens, UniProt P36896)
T5 sequence (P36896 whole entry): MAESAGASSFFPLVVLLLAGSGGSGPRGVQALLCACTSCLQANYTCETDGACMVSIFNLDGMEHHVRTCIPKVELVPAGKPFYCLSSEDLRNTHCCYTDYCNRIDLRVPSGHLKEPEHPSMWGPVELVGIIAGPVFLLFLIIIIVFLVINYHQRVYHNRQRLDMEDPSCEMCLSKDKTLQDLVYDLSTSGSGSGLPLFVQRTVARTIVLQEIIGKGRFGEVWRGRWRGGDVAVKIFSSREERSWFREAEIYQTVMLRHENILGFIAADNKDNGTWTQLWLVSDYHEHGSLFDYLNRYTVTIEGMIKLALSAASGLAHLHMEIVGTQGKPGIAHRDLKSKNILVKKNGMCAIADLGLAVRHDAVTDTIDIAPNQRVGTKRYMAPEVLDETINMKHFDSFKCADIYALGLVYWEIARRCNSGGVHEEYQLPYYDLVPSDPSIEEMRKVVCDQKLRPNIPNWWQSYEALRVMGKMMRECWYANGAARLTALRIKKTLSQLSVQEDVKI
Note: in the data inactive means no Kd found up to 30 µM.

| Structure (SMILES) | Kd [1] | Kd [2] | Kd (Ephrin type-A receptor 2) | Kd (Rab-like protein 3) | Kd [3] | Kd (Septin-9) | Kd [4] | Kd [5] | Kd [6] | Kd [7] | Kd (Activin receptor type-1B) |
| --- | --- | --- | --- | --- | --- | --- | --- | --- | --- | --- | --- |
| COCCNCc1ccc(-c2cc3nccc(Oc4ccc(NC(=S)NC(=O)Cc5ccc(F)cc5)cc4F)c3s2)nc1 [GLESATINIB] | > 30 µM (inactive) | > 30 µM (inactive) | > 30 µM (inactive) | > 30 µM (inactive) | > 30 µM (inactive) | > 30 µM (inactive) | > 30 µM (inactive) | > 30 µM (inactive) | > 30 µM (inactive) | > 30 µM (inactive) | > 30 µM (inactive) |
| CCN1CCN(Cc2ccc(-c3cc4c(N[C@H](C)c5ccccc5)ncnc4[nH]3)cc2)CC1 [AEE-788] | > 30 µM (inactive) | > 30 µM (inactive) | > 30 µM (inactive) | > 30 µM (inactive) | > 30 µM (inactive) | > 30 µM (inactive) | > 30 µM (inactive) | > 30 µM (inactive) | > 30 µM (inactive) | > 30 µM (inactive) | > 30 µM (inactive) |
| CN1CC[C@@H](c2c(O)cc(O)c3c(=O)cc(-c4ccccc4Cl)oc23)[C@@H]1CO | > 30 µM (inactive) | > 30 µM (inactive) | > 30 µM (inactive) | > 30 µM (inactive) | > 30 µM (inactive) | > 30 µM (inactive) | > 30 µM (inactive) | 5.92 µM | > 30 µM (inactive) | > 30 µM (inactive) | > 30 µM (inactive) |
| COc1cc(OC)c(/C=C/S(=O)(=O)Cc2ccc(OC)c(NCC(=O)O)c2)c(OC)c1 [RIGOSERTIB] | > 30 µM (inactive) | > 30 µM (inactive) | > 30 µM (inactive) | > 30 µM (inactive) | > 30 µM (inactive) | > 30 µM (inactive) | > 30 µM (inactive) | > 30 µM (inactive) | > 30 µM (inactive) | > 30 µM (inactive) | > 30 µM (inactive) |
| C1=C/COCc2cc(ccc2OCCN2CCCC2)Nc2nccc(n2)-c2cccc(c2)COC/1 [PACRITINIB] | > 30 µM (inactive) | > 30 µM (inactive) | > 30 µM (inactive) | > 30 µM (inactive) | > 30 µM (inactive) | > 30 µM (inactive) | 0.089 µM | > 30 µM (inactive) | > 30 µM (inactive) | > 30 µM (inactive) | > 30 µM (inactive) |
| CNC(=O)c1ccc(-c2cnc3ncc(Cc4ccc5ncccc5c4)n3n2)cc1F [CAPMATINIB] | > 30 µM (inactive) | > 30 µM (inactive) | > 30 µM (inactive) | > 30 µM (inactive) | > 30 µM (inactive) | > 30 µM (inactive) | > 30 µM (inactive) | > 30 µM (inactive) | > 30 µM (inactive) | > 30 µM (inactive) | > 30 µM (inactive) |
| CC[C@@H]1C(=O)N(C)c2cnc(Nc3ccc(C(=O)N[C@H]4CC[C@H](N5CCN(CC6CC6)CC5)CC4)cc3OC)nc2N1C(C)C [VOLASERTIB] | > 30 µM (inactive) | > 30 µM (inactive) | > 30 µM (inactive) | > 30 µM (inactive) | > 30 µM (inactive) | > 30 µM (inactive) | > 30 µM (inactive) | > 30 µM (inactive) | > 30 µM (inactive) | > 30 µM (inactive) | > 30 µM (inactive) |
| Cc1cc2c(F)c(Oc3ncnn4cc(OC[C@@H](C)OC(=O)[C@H](C)N)c(C)c34)ccc2[nH]1 [BRIVANIB ALANINATE] | 0.003 µM | > 30 µM (inactive) | > 30 µM (inactive) | > 30 µM (inactive) | > 30 µM (inactive) | > 30 µM (inactive) | > 30 µM (inactive) | > 30 µM (inactive) | > 30 µM (inactive) | > 30 µM (inactive) | > 30 µM (inactive) |
| CN1N=C(N)c2cn([C@@H]3O[C@H](COP(=O)(O)O)[C@@H](O)[C@H]3O)c3ncnc1c23 [TRICIRIBINE PHOSPHATE] | > 30 µM (inactive) | > 30 µM (inactive) | > 30 µM (inactive) | > 30 µM (inactive) | > 30 µM (inactive) | > 30 µM (inactive) | > 30 µM (inactive) | > 30 µM (inactive) | > 30 µM (inactive) | > 30 µM (inactive) | > 30 µM (inactive) |
| Cc1cc([C@@H](C)Nc2ccccc2C(=O)O)c2nc(N3CCOCC3)cc(=O)n2c1 [AZD-6482] | > 30 µM (inactive) | > 30 µM (inactive) | > 30 µM (inactive) | > 30 µM (inactive) | > 30 µM (inactive) | > 30 µM (inactive) | > 30 µM (inactive) | > 30 µM (inactive) | > 30 µM (inactive) | > 30 µM (inactive) | > 30 µM (inactive) |
| CCS(=O)(=O)N1CC(CC#N)(n2cc(-c3ncnc4[nH]ccc34)cn2)C1 [BARICITINIB] | > 30 µM (inactive) | > 30 µM (inactive) | > 30 µM (inactive) | > 30 µM (inactive) | > 30 µM (inactive) | 0.084 µM | > 30 µM (inactive) | > 30 µM (inactive) | > 30 µM (inactive) | > 30 µM (inactive) | > 30 µM (inactive) |
| Cc1cc(-c2cc(O)ccc2Cl)cc2nnc(Nc3ccc(OCCN4CCCC4)cc3)nc12 | > 30 µM (inactive) | > 30 µM (inactive) | 0.001 µM (active) | > 30 µM (inactive) | > 30 µM (inactive) | > 30 µM (inactive) | > 30 µM (inactive) | > 30 µM (inactive) | > 30 µM (inactive) | > 30 µM (inactive) | 0.001 µM (active) |
| COc1cc(N2CCC(N3CCN(C)CC3)CC2)ccc1Nc1ncnc(Nc2ccccc2S(=O)(=O)C(C)C)n1 [ASP-3026] | > 30 µM (inactive) | > 30 µM (inactive) | 1.25 µM (active) | > 30 µM (inactive) | > 30 µM (inactive) | > 30 µM (inactive) | > 30 µM (inactive) | > 30 µM (inactive) | > 30 µM (inactive) | > 30 µM (inactive) | > 30 µM (inactive) |

From ChEMBL document CHEMBL3991601, “The target landscape of clinical kinase drugs” (Science, 2017)
